Where two headings read alike, the source gives them in different places. One block for each molecule: values may come before it.
How the values were obtained:
human PPARdelta = target: T1, human PPARdelta (Homo sapiens, UniProt Q03181); assay: Cellular PPARdelta assay (luciferase reporter, stably transfected HEK cell line); format: cell-based; conditions: GR-GAL4-humanPPARdelta-LBD
T1 construct: amino acids S139-Y441; expressed in transfected cells; host or cells: HEK (human embryo kidney) cells, stably transfected with a pcDNA3 construct
T1 sequence (Q03181 139-441): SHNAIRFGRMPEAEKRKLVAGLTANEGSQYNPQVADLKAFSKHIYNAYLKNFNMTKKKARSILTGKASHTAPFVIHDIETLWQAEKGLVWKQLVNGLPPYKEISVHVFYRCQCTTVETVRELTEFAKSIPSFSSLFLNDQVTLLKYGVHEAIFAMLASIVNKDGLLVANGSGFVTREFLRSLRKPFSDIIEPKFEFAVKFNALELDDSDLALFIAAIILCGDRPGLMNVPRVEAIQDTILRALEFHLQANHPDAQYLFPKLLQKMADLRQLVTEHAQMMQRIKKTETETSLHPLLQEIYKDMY
Experimental: (§1) The potency of substances which bind to human PPARdelta and activate it in an agonistic manner is analyzed using a stably transfected HEK cell line (HEK=human embryo kidney) which is referred to here as PPARdelta reporter cell line. In analogy to the assay described for PPARalpha, the PPARdelta reporter cell line also contains two genetic elements, a luciferase reporter element (pdeltaM-GAL4-Luc-Zeo) and a PPARdelta fusion protein (GR-GAL4-humanPPARdelta-LBD) which mediates expression of the luciferase reporter element depending on a PPARdelta ligand. The stably and constitutively expressed fusion protein GR-GAL4-humanPPARdelta-LBD binds in the cell nucleus of the PPARdelta reporter cell line via the GAL4 protein portion to the GAL4 DNA binding motifs 5″-upstream of the luciferase reporter element which is stably integrated in the genome of the cell line. There is only little expression of the luciferase reporter gene in the absence of a PPARdelta ligand if fatty acid-depleted fetal calf serum (cs-FCS) is used in the assay. PPARdelta ligands bind and activate the PPARdelta fusion protein and thereby stimulate expression of the luciferase reporter gene. The luciferase which is formed can be detected by means of chemiluminescence via an appropriate substrate.
The production of the stable PPARdelta reporter cell line is based on a stable HEK-cell clone which was stably transfected with a luciferase reporter element. This step was already described above in the section “construction of the PPARalpha reporter cell line”. […]
The activity of PPARdelta agonists is determined in a 3-day assay in exact analogy to the procedure already described for the PPARalpha reporter cell line except that the PPARdelta reporter cell line and a specific PPARdelta agonist was used as a standard to control test efficacy.

human PPARalpha = target: T2, human PPARalpha (Homo sapiens, UniProt Q07869); assay: Cellular PPARalpha assay (luciferase reporter, stably transfected HEK cell line); format: cell-based; conditions: GR-GAL4-humanPPARalpha-LBD
T2 construct: amino acids S167-Y468; expressed in transfected cells; host or cells: HEK (human embryo kidney) cells, stably transfected with a pcDNA3 construct
T2 sequence (Q07869 167-468): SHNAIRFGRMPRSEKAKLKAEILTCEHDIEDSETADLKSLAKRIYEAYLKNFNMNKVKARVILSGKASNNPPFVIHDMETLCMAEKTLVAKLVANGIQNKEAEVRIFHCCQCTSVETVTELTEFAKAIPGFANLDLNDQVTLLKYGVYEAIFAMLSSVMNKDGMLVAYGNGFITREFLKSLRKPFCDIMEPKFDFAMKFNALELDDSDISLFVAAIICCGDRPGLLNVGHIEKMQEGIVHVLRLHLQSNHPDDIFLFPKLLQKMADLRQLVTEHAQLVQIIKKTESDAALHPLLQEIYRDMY
Experimental: as §1, with “PPARalpha” for “PPARdelta”, “It” for “In analogy to the assay described for PPARalpha, the PPARdelta reporter cell line also”, “(GR-GAL4-humanPPARalpha-LBD)” for “(GR-GAL4-humanPPARdelta-LBD)”, “GR-GAL4-humanPPARalpha-LBD” for “GR-GAL4-humanPPARdelta-LBD”, “weak” for “little”, “stimulate the” for “stimulate”
The PPARalpha reporter cell line was prepared in two stages. […]
The activity of PPARalpha agonists is determined in a 3-day assay which is described below: […]

[1] = obese, insulin resistant rhesus monkeys, cited from earlier work
[2] = rhesus and cynomolgus monkeys; cited from earlier work
[3] = two weeks clinical trials in healthy volunteers; cited from earlier work
[4] = diabetic animal model; cited from earlier work

Compound: Cc1cc(SCc2sc(-c3ccc(C(F)(F)F)cc3)nc2C)ccc1OCC(=O)O [GW501516]
- insulin levels ([1]; plasma): decreases
- triglycerides ([1]; plasma): decreases
- HDL-cholesterol [1]: raises
- plasma LDL-cholesterol [1]: decreases

Compound: CCCc1c(OCCCSc2nnc(SCC(=O)O)s2)ccc(C(C)=O)c1O [YM-16638]
- plasma lipids [2]: significantly lowers plasma lipids
- plasma lipids [3]: acts in a similar manner

Compound: CCCc1c(OCCCOc2ccc(OCC(=O)O)cc2)ccc(C(C)=O)c1O [Example L-165041]
- plasma cholesterol [4]: raises plasma cholesterol

The remaining lines, values ahead:

- EC50 (human PPARdelta): 336 nM
- EC50 (human PPARalpha): 6700 nM
Compound: O=c1[nH]c(-c2ccc(S(=O)(=O)N3CCc4cc(-c5ccc(C(F)(F)F)cc5)ccc43)nc2)no1 [Example 2, 3-{6-[5-(4-Trifluoromethyl-phenyl)-2,3-dihydro-indole-1-sulfonyl]-pyridin-3-yl}-4H-[1,2,4]oxadiazol-5-one]

- EC50 (human PPARdelta): 13 nM
Compound: O=c1[nH]c(-c2ccc(S(=O)(=O)N3CCc4cc(-c5ccc(C(F)(F)F)cc5)ccc43)cn2)no1 [Example 3, 3-{5-[5-(4-Trifluoromethyl-phenyl)-2,3-dihydro-indole-1-sulfonyl]-pyridin-2-yl}-4H-[1,2,4]oxadiazol-5-one]

- EC50 (human PPARdelta): 21 nM
- EC50 (human PPARalpha): 920 nM
Compound: O=c1[nH]c(-c2ccc(S(=O)(=O)N3CCc4cc(-c5ccc(C(F)(F)F)cc5)ccc43)s2)no1 [Example 1, 3-{5-[5-(4-Trifluoromethyl-phenyl)-2,3-dihydro-indole-1-sulfonyl]thiophen-2-yl}-4H-[1,2,4]oxadiazol-5-one]

Reference: patent US8716317B2, “Sulfonamides with heterocycle and oxadiazolone headgroup, processes for their preparation and their use as pharmaceuticals” (Sanofi, priority 2008, dated 2014)
